Reference: BindingDB's records for doi:10.1016/j.bmc.2016.01.042 (University of California, 2016)

Target: T1, Polyunsaturated fatty acid lipoxygenase ALOX15 (Homo sapiens, UniProt P16050)
T1 sequence (P16050 whole entry): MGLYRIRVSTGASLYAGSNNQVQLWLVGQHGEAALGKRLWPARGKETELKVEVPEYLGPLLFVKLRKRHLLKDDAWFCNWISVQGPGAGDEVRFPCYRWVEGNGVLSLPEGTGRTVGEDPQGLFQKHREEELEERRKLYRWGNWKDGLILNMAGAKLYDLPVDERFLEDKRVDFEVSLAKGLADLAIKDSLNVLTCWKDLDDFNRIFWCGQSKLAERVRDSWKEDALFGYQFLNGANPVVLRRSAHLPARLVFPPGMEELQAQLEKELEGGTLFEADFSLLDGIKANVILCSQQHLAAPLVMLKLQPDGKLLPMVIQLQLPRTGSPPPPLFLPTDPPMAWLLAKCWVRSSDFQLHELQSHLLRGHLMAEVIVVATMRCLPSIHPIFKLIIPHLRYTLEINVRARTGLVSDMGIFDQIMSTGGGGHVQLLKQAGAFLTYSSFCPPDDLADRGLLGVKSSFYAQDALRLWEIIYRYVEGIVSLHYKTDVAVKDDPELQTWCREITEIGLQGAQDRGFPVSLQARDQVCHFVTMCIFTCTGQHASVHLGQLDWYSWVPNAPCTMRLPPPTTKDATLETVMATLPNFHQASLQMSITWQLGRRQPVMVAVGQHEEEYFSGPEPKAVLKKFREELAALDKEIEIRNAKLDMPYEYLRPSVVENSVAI
Test: Competitive inhibition of N-terminal His6-tagged human 12/15-LOX using arachidonic acid as substrate by Dixon plot analysis

- Ki: 1000 nM
Compound: Cc1ccc(O)c(-c2cc(-c3ccccc3C)[nH]n2)c1 [4-methyl-2-[5-(2-methylphenyl)-1H-pyrazol-3-yl]phenol]
